In the supplement of paper PMC10307832:

How the values were obtained:
Assay in all cases: relative viability (nuclei count vs DMSO), 5 days (fraction); higher = more cells survive
Trametinib + Bortezomib = compound: CC(=O)Nc1cccc(-n2c(=O)n(C3CC3)c(=O)c3c(Nc4ccc(I)cc4F)n(C)c(=O)c(C)c32)c1 [Trametinib] + CC(C)C[C@H](NC(=O)[C@H](Cc1ccccc1)NC(=O)c1cnccn1)B(O)O [Bortezomib] (partner 0.002 µM)
Method in brief: (§1)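 Lung cancer cell lines in 1536-well plates got either a single drug or a fixed anchor-drug dose together with five library-drug doses (not always all listed) in √10 steps, by pin tool, on the day after seeding. Nuclei were counted after 5 days, and relative viability is the treated-to-vehicle ratio of nuclei counts. Values are medians of duplicate plates.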

Trametinib + Crizotinib = compound: CC(=O)Nc1cccc(-n2c(=O)n(C3CC3)c(=O)c3c(Nc4ccc(I)cc4F)n(C)c(=O)c(C)c32)c1 [Trametinib] + C[C@@H](Oc1cc(-c2cnn(C3CCNCC3)c2)cnc1N)c1c(Cl)ccc(F)c1Cl [Crizotinib] (partner 1 µM)
Method in brief: as §1

Trametinib + AZD7762 = compound: CC(=O)Nc1cccc(-n2c(=O)n(C3CC3)c(=O)c3c(Nc4ccc(I)cc4F)n(C)c(=O)c(C)c32)c1 [Trametinib] + NC(=O)Nc1cc(-c2cccc(F)c2)sc1C(=O)N[C@H]1CCCNC1 [AZD7762] (partner 0.2 µM)
Method in brief: as §1

[1] = compound: CN1C=C(C2=CC=CC=C21)/C=C\3/C4=C(C=CC=N4)NC3=O + Cc1cc(Nc2cc(N3CCN(C)CC3)nc(Sc3ccc(NC(=O)C4CC4)cc3)n2)n[nH]1 [Tozasertib] (partner 0.1 µM)
Method in brief: as §1

| Cell Line | relative viability (Trametinib + Bortezomib; first compound 0.0025 µM) | relative viability (Trametinib + Bortezomib; first compound 0.007906 µM) | relative viability (Trametinib + Bortezomib; first compound 0.025 µM) | relative viability (Trametinib + Bortezomib; first compound 0.07906 µM) | relative viability (Trametinib + Bortezomib; first compound 0.25 µM) | relative viability (Trametinib + Crizotinib; first compound 0.0025 µM) | relative viability (Trametinib + Crizotinib; first compound 0.007906 µM) | relative viability (Trametinib + Crizotinib; first compound 0.025 µM) | relative viability (Trametinib + Crizotinib; first compound 0.07906 µM) | relative viability (Trametinib + Crizotinib; first compound 0.25 µM) | relative viability (Trametinib + AZD7762; first compound 0.0025 µM) | relative viability (Trametinib + AZD7762; first compound 0.007906 µM) | relative viability (Trametinib + AZD7762; first compound 0.025 µM) | relative viability (Trametinib + AZD7762; first compound 0.07906 µM) | relative viability (Trametinib + AZD7762; first compound 0.25 µM) | relative viability ([1]; first compound 0.02 µM) | relative viability ([1]; first compound 0.06325 µM) | relative viability ([1]; first compound 0.2 µM) | relative viability ([1]; first compound 0.6325 µM) | relative viability ([1]; first compound 2 µM) |
| --- | --- | --- | --- | --- | --- | --- | --- | --- | --- | --- | --- | --- | --- | --- | --- | --- | --- | --- | --- | --- |
| CAL-12T | 0.784 | 0.734 | 0.645 | 1.43 | 0.454 | 0.651 | 0.853 | 0.434 | 0.367 | 0.213 | 0.642 | 0.61 | 0.619 | 0.536 | 0.483 | 0.343 | 0.255 | 0.247 | 0.324 | 0.206 |
| HARA | 1.09 | 1.06 | 0.983 | 0.745 | 0.0924 | 0.9 | 0.907 | 0.807 | 0.638 | 0.336 | 0.447 | 0.394 | 0.365 | 0.276 | 0.215 | 0.0897 | 0.112 |  | 0.0723 | 0.0941 |
| NCI-H596 | 0.759 | 0.892 | 0.795 | 1.47 | 0.474 | 0.8 | 0.824 | 0.757 | 0.721 | 0.597 | 0.942 | 1.05 | 0.921 | 0.756 | 0.653 | 0.981 | 0.878 | 0.745 | 0.7 | 0.918 |
| LU99A | 1.08 | 1.21 | 0.815 | 0.726 | 0.407 | 0.554 | 0.489 | 0.473 | 0.368 | 0.214 | 0.365 | 0.353 | 0.2 | 0.214 | 0.179 | 0.252 | 0.264 | 0.278 | 0.257 | 0.256 |
| LC-2-ad | 0.999 | 0.898 | 0.928 | 0.713 | 0.443 | 0.47 | 0.463 | 0.422 |  | 0.294 | 0.732 | 0.584 | 0.518 | 0.403 | 0.406 | 0.43 | 0.435 | 0.482 | 0.453 | 0.492 |
| NCI-H1915 | 0.931 | 0.816 | 0.825 | 0.756 | 0.139 | 0.872 | 0.756 | 0.568 | 0.333 | 0.231 | 0.702 | 0.715 | 0.405 | 0.365 | 0.218 | 0.385 | 0.432 | 0.482 | 0.424 | 0.484 |
| ABC-1 | 0.301 | 0.299 | 0.255 | 0.251 | 0.235 | 0.99 | 1.03 | 0.972 | 1.07 | 0.634 | 0.801 | 0.756 | 0.562 | 0.555 | 0.915 | 0.173 | 0.18 | 0.172 | 0.173 | 0.183 |
| HCC-44 | 0.926 | 0.905 | 0.946 | 0.816 | 0.585 | 0.853 | 0.916 | 0.763 | 0.728 | 0.526 | 0.958 | 1.07 | 1.2 | 1.31 | 1.05 | 0.918 | 0.887 |  | 1.13 | 0.944 |
| HCC-78 | 0.399 | 0.404 | 0.4 | 0.395 | 0.332 | 0.318 | 0.275 | 0.252 | 0.285 | 0.215 | 0.661 | 0.484 | 0.393 | 0.427 | 0.46 | 0.386 | 0.424 |  | 0.271 | 0.426 |
| LXF-289 | 0.872 | 0.812 | 0.757 | 0.703 | 0.459 | 0.738 | 0.711 | 0.608 | 0.531 | 0.353 | 0.994 | 0.906 | 0.818 | 0.71 | 0.534 | 0.14 | 0.195 | 0.217 | 0.213 | 0.182 |
| 201T | 1.08 | 1.01 | 0.942 | 1.05 | 0.801 | 1.05 | 1.01 | 0.859 | 0.872 | 0.799 | 0.632 | 0.607 | 0.473 | 0.592 | 0.557 | 1 | 0.96 | 0.947 | 0.897 | 0.781 |
| NCI-H1792 | 0.971 | 0.85 | 0.647 | 0.597 | 0.455 | 0.92 | 0.949 | 0.738 | 0.553 | 0.488 | 0.682 | 0.552 | 0.24 | 0.26 | 0.133 |  |  |  |  |  |
| NCI-H1703 | 0.294 | 0.263 | 0.372 | 0.369 | 0.287 |  | 0.495 | 0.66 | 0.727 | 0.423 | 0.141 | 0.126 | 0.144 | 0.101 | 0.112 |  |  |  |  |  |
| NCI-H358 |  |  |  |  |  | 0.526 | 0.349 | 0.276 | 0.243 | 0.194 | 0.388 | 0.39 | 0.331 | 0.264 | 0.292 | 0.0895 | 0.11 | 0.109 | 0.0977 | 0.117 |
| LK-2 |  |  |  |  |  | 0.283 | 0.217 | 0.226 | 0.299 | 0.241 | 0.347 | 0.544 | 0.288 | 0.259 | 0.12 |  |  |  | 0.164 | 0.152 |
| NCI-H2170 |  |  |  |  |  | 1.16 | 1.07 |  | 1.1 | 1.04 | 0.878 | 0.84 |  | 0.748 | 0.556 | 0.549 | 0.721 | 0.737 | 0.79 | 0.72 |
| NCI-H1944 |  |  |  |  |  | 1 | 0.763 | 0.762 | 0.629 | 0.326 | 0.511 | 0.39 | 0.344 | 0.366 | 0.311 | 0.234 | 0.246 |  | 0.234 | 0.21 |
